{"source": "patent US20030004123A1", "about": "“Targeted gene transfer using G protein coupled receptors” (priority 1997, published 2003)", "key": {"[1]": {"tested_on": "WD human airway epithelial cells", "experiment": "Cl- secretory response of WD human airway epithelial cultures to lumenal agonists", "type": "cell-based", "settings": "agonist at 10^−4M, FIG. 3", "text": "Epithelial cells are derived from CF and non-CF nasal and bronchial airway epithelia using procedures similar to those described by Gray et al. 1996. Am. J Respir. Cell Mol. Biol. 14, 104-112. Resected nasal turbinates or portions of mainstem/lobar bronchi representing excess donor tissue are obtained at the time of lung transplantation under the auspices of the University of North Carolina at Chapel Hill Institutional Committee on the Protection of the Rights of Human Subjects. Epithelial cells are removed from the specimens by protease XIV digestion as described (Wu, R., et al., 1985. Am. Rev. Respir. Dis. 132, 311-320), but omitting the filtration step. 1-2×10^6 cells are plated per 100 mm tissue culture dish in modified LHC9 medium. Lechner, J. F. and Laveck, M. A. 1985. J. Tiss. Cult. Meth. 9, 43-48. The modifications include increasing the EGF concentration to 25 ng/ml, adjusting the retinoic acid concentration to 5×10^−8 M, and supplementation with 0.5 mg/ml bovine serum albumin and 0.8% bovine pituitary extract. At approximately 75% confluence, the cells are harvested by trypsinization and passage 1 cells are plated at a density of 2.5×10^5 cells on Transwell-Col inserts (Coming-Costar, 24 mm diameter, 0.4 μm pore size), in modified medium. The medium is similar to the supplemented LHC9 except that a 50:50 mixture of LHC Basal (Biofluids) and DMEM-H is used as the base, amphotericin and gentamycin are omitted and the EGF concentration is reduced to 0.5 ng/ml. After the cells grow to confluence (4-6 days) the apical surface of the cultures are given an air-liquid interface for another 25-30 days until use.\nInvestigations were carried out to identify which 7-TM receptors, if any, are localized in the apical membrane of WD human airway epithelial cells. Cultures of WD cells were exposed to NECA (an A2b receptor agonist), isoproterenol, bradykinin, or ATP (all at 10^−4M), and Cl-secretory responsiveness was determined."}, "[2]": {"experiment": "Metabolic stability in cystic fibrosis sputum", "type": "in vitro ADME", "settings": "compared with UTP, FIG. 9B", "text": "FIG. 9B is a graphical representation of the metabolic stability of U2P4 compared with UTP in cystic fibrosis sputum.\nBiologically active analogs of UTP that are more resistant to biological hydrolysis than UTP have been developed for linkage to vectors. The dinucleotide U2P4 has useful properties."}, "P2Y2 receptors": {"target": "T1, P2Y2 receptors (Homo sapiens, UniProt P41231)", "T1 construct": "expressed in transfected cells; host or cells: astrocytoma cells", "T1 sequence (P41231 whole entry)": "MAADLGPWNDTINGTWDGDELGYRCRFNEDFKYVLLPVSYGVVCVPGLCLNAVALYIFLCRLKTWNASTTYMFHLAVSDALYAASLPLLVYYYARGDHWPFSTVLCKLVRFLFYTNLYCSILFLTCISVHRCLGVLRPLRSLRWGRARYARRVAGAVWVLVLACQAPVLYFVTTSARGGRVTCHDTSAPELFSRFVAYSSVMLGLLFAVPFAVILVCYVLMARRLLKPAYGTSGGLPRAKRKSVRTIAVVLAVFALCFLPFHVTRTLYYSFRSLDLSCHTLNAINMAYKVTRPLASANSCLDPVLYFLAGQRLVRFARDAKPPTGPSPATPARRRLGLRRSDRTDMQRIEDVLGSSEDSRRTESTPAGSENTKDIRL", "experiment": "Inositol phosphate formation in astrocytoma cells expressing P2Y2 receptors", "type": "cell-based", "settings": "FIG. 9A", "text": "FIG. 9A is a graphical representation of a comparison of agonist potency of U2P4 and UTP in astrocytoma cells expressing P2Y2 receptors."}, "[3]": {"target": "T2, human P2Y2-receptor (HA epitope-tag) in 1321N1 human astrocytoma cells (Homo sapiens, UniProt P41231)", "T2 construct": "expressed in transfected cells; host or cells: 1321N1 human astrocytoma cells", "T2 sequence (P41231 whole entry)": "as above", "experiment": "Internalization of P2Y2-HA receptor in astrocytoma cells (immunofluorescence, ELISA)", "type": "cell-based", "settings": "30 min ATPγS exposure"}, "[4]": {"target": "T2, human P2Y2-receptor (HA epitope-tag) in 1321N1 human astrocytoma cells", "settings": "ELISA, ATPγS exposures of 1 hr; cited from earlier work"}, "[5]": {"target": "T3, HA-tagged human P2Y2 receptor (Homo sapiens, UniProt P41231)", "T3 construct": "expressed in transfected cells; host or cells: A9 cells (retroviral gene transfer)", "T3 sequence (P41231 whole entry)": "as above", "experiment": "Agonist-induced internalization of HA-P2Y2 receptor in A9 cells", "type": "cell-based", "settings": "ATPγS 10^−4 M, within 45 minutes", "text": "To test the concept that the P2Y2 receptor is a candidate receptor for targeting based on the ability to bind and internalize an exogenous ligand, we have obtained CHO and A9 cells (both of which are not transducible by AdV) that express the HA-tagged human P2Y2 receptor (HA tag on the extracellular N-terminus) by retroviral gene transfer. HA-P2Y2 receptor expressing A9 cells, but not control cells, stain with fluorescently labeled anti-HA Abs under resting conditions. With agonist [ATPγS (10^−4 M)] exposure, approximately 80% of the receptors are internalized within 45 minutes. The internalization of P2Y2 receptor is mediated via coated pits."}}}
{"smiles": "CCNC(=O)[C@H]1O[C@@H](n2cnc3c(N)ncnc32)[C@H](O)[C@@H]1O", "note": "[NECA]", "values": [{"measurement": "Cl-secretory responsiveness", "setting": "[1]", "value": "a Cl-secretory response was detected"}]}
{"smiles": "Nc1ncnc2c1ncn2[C@@H]1O[C@H](COP(=O)(O)OP(=O)(O)OP(=O)(O)O)[C@@H](O)[C@H]1O", "note": "[ATP]", "values": [{"measurement": "Cl-secretory responsiveness", "setting": "[1]", "value": "the greatest response"}]}
{"smiles": "O=c1ccn([C@@H]2O[C@H](COP(=O)([O-])OP(=O)([O-])OP(=O)([O-])OP(=O)([O-])OC[C@H]3O[C@@H](n4ccc(=O)[nH]c4=O)[C@H](O)[C@@H]3O)[C@@H](O)[C@H]2O)c(=O)[nH]1.[Na+].[Na+].[Na+].[Na+]", "note": "[Example U2P4]", "values": [{"measurement": "hydrolysis in cystic fibrosis (CF) sputum", "setting": "[2]", "value": "resistant to hydrolysis"}, {"measurement": "agonist potency relative to UTP (inositol phosphate release)", "setting": "P2Y2 receptors", "value": "equipotent with UTP"}]}
{"smiles": "CC(C)NCC(O)c1ccc(O)c(O)c1", "note": "(centres unmarked) [isoproterenol]", "values": [{"measurement": "Cl-secretory responsiveness", "setting": "[1]", "value": "a Cl-secretory response was detected"}]}
{"smiles": "Nc1ncnc2c1ncn2[C@@H]1O[C@H](COP(=O)(O)OP(=O)(O)OP(O)(O)=S)[C@@H](O)[C@H]1O", "note": "[ATPγS]", "values": [{"measurement": "plasma membrane immunoreactivity of P2Y2-HA receptor", "setting": "[3]", "value": "clear loss of immunoreactivity from the plasma membrane"}, {"measurement": "internalization efficiency (loss of receptor sites)", "setting": "[4]", "value": 80, "unit": "%"}, {"measurement": "receptors internalized", "setting": "[5]", "value": "approximately 80%"}]}
